The target in assay [1] is T1, CYP11 B1 (Homo sapiens, UniProt P15538).
T1 sequence (P15538 25-503): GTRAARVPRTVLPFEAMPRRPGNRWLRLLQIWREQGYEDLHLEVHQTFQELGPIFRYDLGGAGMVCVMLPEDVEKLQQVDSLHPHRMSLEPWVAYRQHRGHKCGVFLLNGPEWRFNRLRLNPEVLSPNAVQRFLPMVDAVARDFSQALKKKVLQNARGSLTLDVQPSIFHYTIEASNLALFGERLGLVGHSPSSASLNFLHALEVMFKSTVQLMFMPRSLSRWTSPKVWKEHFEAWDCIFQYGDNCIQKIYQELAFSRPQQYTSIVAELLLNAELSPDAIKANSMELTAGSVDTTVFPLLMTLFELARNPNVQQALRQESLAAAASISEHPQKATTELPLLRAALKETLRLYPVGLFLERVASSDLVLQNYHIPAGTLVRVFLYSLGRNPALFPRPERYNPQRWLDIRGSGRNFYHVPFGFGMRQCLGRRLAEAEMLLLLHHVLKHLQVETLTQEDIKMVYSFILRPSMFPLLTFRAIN
Kind of assay: Inhibition of CYP11 B1 in Y1-CYP11 B1 cells (cortisol radioimmunoassay). On the set-up: expressed in transfected cells; host or cells: murine Y1 adrenal adenocarcinoma cells (Y1-CYP11 B1 cells). The settings on record: Y1-Cells stably transfected with human CYP11 B1 gene; 1 µM RSS substrate; 48 hours. The class given is cell-based. As to the method: (§1) Y-1 is a continuous epithelial cell line derived from a murine adrenal adenocarcinoma. Y-1-cells are in the following designated "Y1-cells". They were obtained from CLS Cell Lines Service GmbH, Dr.Eckener-Str. 8, 69214 Eppelheim, Germany under order number 0477 MA. They can also be obtained from ATCC under ATCC number CCL-79. Y1-cells stably transfected with human CYP11 B1 gene (Y1-CYP11 B1 cells) and Y1-cells stably transfected with human CYP11 B2 gene (Y1-CYP11 B2 cells) were cultured on 6-well plates by seeding 5 x 10^5 cells per well in 2 ml of culture medium. The enzyme reaction was started after 24 hours by addition of 1 ml culture medium containing either 1 µM RSS ([…]) or 1µM DOC (Deoxycorticosteronacetat) as substrate and the corresponding inhibitor at concentrations between 0.1 nM - 10 µM followed by incubation for 48 hours. RSS and DOC were dissolved in ethanol prior to addition to the culture medium. RSS and DOC are precursors of cortisol and aldosterone, respectively. […] Y1-Cyp11 B1 and Y1-Cyp11 B2 cells treated in the same way but without inhibitor served as controls.
(§2) Concentrations of cortisol and aldosterone in the supernatants of the cells were determined by commercially available radioimmunoassays (DPC Biermann, Bad Nauheim, Germany; IBL international, Hamburg, Germany). The intraassay variance of both assays was <8%, the interassay variance <12%.
(§3) The IC50 values are calculated according to the following general equation: IC50 = (1+([S])/(Km))⋅Ki [formula]
(§4) S = Substrate concentration, Km = Michaelis-Menten constant, Ki = Dissociation constant.
(§5) IC50 values determined by use of Y1-CYP11 B1 cells are designated as "IC50CYP11 B1" and IC50 values determined by use of Y1-CYP11 B2 cells are designated as "IC50CYP11 B2". A selectivity factor was calculated by the following formula: IC50CYP11 B1/IC50CYP11 B2

Assay [2] has as its target T2, human aldosterone synthase (Homo sapiens, UniProt P19099).
T2 construct: expressed in transfected cells; host or cells: mice expressing human aldosterone synthase (humanized mice), in vivo
T2 sequence (P19099 25-503): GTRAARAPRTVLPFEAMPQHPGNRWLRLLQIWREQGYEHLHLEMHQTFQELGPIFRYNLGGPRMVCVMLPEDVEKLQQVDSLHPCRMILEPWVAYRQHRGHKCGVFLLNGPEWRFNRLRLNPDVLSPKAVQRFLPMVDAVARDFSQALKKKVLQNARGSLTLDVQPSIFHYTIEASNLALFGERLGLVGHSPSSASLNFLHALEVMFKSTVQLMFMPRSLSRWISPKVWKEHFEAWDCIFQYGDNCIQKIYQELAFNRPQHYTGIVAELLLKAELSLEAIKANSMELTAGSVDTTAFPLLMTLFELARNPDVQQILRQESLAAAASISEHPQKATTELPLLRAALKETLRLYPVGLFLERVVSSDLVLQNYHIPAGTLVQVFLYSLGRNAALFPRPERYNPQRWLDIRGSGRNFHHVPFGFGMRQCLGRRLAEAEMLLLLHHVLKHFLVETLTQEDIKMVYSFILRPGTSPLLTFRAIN
As to the kind of experiment: In vivo evaluation of aldosterone synthesis in mice expressing human aldosterone synthase (Fig. 10). Also noted: species or system mouse. To be noted: i.v., 1 h after injection. As to the method:
An in vivo evaluation of the influence of several substances and conditions and one compound according to the invention on human aldosterone synthase was performed using mice expressing human aldosterone synthase.
Detection of inhibition of aldosterone synthesis is facilitated by a high aldosterone level. Therefore, the influence of a low-sodium-diet, of drinking water with high concentration of potassium for 24 h before start of the experiment, and of the age and sex of the mice was investigated in order to find out conditions resulting in a high aldosterone level. The result was that drinking water with a high concentration of potassium ions for 24 h before start of the experiment is able to increase the aldosterone level. The secretion of aldosterone varied with the age of the mice. Sex of the mice had no significant effect.

Assay [3] has as its target T3, CYP11 B2 (Homo sapiens, UniProt P19099).
T3 sequence (P19099 25-503): T2 sequence (P19099 25-503)
Kind of assay: Inhibition of CYP11 B2 in Y1-CYP11 B2 cells (aldosterone radioimmunoassay). The class given is cell-based. On the set-up: expressed in transfected cells; host or cells: murine Y1 adrenal adenocarcinoma cells (Y1-CYP11 B2 cells). As to the method: as §1, §2, §3, §4, §5

In assay [4] the test system is human cryosections of normal adrenal gland and conn-adenomas. As to the kind of experiment: Binding of 18F-labelled compounds to human cryosections (Fig. 5). To be noted: 18F-labelled compound, 0.1 MBq, with or without 10µM of the corresponding nonradioactive compound. The protocol:
The binding of the ^18F-labelled compounds no. 188, 189, and 191 to human cryosections of normal adrenal gland and conn-adenomas was studied. The meaning of the abbreviations is as follows: nNN = normal adrenal gland, APA = aldosterone producing adenoma, CPA = cortisol producing adenoma, ACC = adrenocortical carcinoma, IMTO = ^125I-Iodometomidate (an established tracer compound), A= 0.1 MBq of the radioactive compound + 10µM of the corresponding nonradioactive compound, B= 0.1 MBq of the radioactive compound.
Corresponding hematoxilin-eosin (HE) stained slices enlarged by a factor of 2.5 and 5, respectively are shown on the right side of Fig. 5.

Assay [5] deals with T1, CYP11 B1. Kind of assay: Indirect evaluation of CYP11 B1 inhibition in NCI-H295 cells (cortisol radioimmunoassay). The class given is cell-based. Also noted: The cells contain the whole cascade of enzymes for producing these hormones; host or cells: NCI-H295. The settings on record: 48 hours. As to the method:
(§6) For indirect evaluation of inhibition of CYB11 B1 and CYP11 B2 by different inhibitors, cells of the adrenocortical cell line NCI-H295 were cultured on 6-well plates by seeding 1x10^6 cells per well. NCI-H295 cells were obtained from ATCC (American Type Culture Collection) under ATCC number CRL-10296 via LGC Standards GmbH - Germany Office, Mercatorstr. 51, 46485 Wesel, Germany. NCI-H295 cells can also be obtained from Bioresource Collection and Research Centre (BCRC), 331, Shih-Pin Rd., Hsinchu 30062, Taiwan under BCRC number 60354. NCI-H295 cells produce cortisol as well as aldosterone. The cells contain the whole cascade of enzymes for producing these hormones. […] NCI-H295 cells treated in the same way but without inhibitor served as controls.
as §2, §3, §4

Assay [6] deals with T3, CYP11 B2. As to the kind of experiment: Indirect evaluation of CYP11 B2 inhibition in NCI-H295 cells (aldosterone radioimmunoassay). The assay is classed as cell-based. On the set-up: The cells contain the whole cascade of enzymes for producing these hormones; host or cells: NCI-H295. As to the method:
as §6, §2, §3, §4

Each structure is given as a SMILES string.

For `N#Cc1ccc(-c2cncc(C3OCCO3)c2)cc1F` [compound 191], the IC50 on CYP11 B1 [1] worked out at 40.1 ± 16.2 nM; on CYP11 B2 [3] (Y1-Cells stably transfected with human CYP11 B2 gene, 1µM DOC substrate, 48 hours), 0.98 ± 0.35 nM; on CYP11 B1 [5] it was 15.5 ± 8.1 nM; at CYP11 B2 [6] (48 hours), 1.1 ± 0.5 nM. The “inhibition of the secretion of aldosterone” value in assay [2] is reported as “potent inhibition of the secretion of aldosterone”. The Selectivity factor was determined as 40.1 at CYP11 B2 [3] (Y1-Cells, IC50CYP11 B1/IC50CYP11 B2) and 13.1 at CYP11 B2 [6] (IC50 CYP11 B1/IC50 CYP11 B2). In addition, in assay [4], the “significant and specific binding” value is “best results with respect to a significant and specific binding”.

The values above are taken from patent publication EP3357910A1, “COMPOUND FOR IN VIVO DIAGNOSIS OF A DYSFUNCTION OF ADRENAL GLANDS” (Julius-Maximilians-Universität Würzburg, priority 2017, dated 2018).
